This is an account of results in patent publication US20200316038A1, “METHODS AND COMPOSITIONS FOR TREATING UREA CYCLE DISORDERS, IN PARTICULAR OTC DEFICIENCY” (CAMP4 THERAPEUTICS CORPORATION, priority 2017, published 2020).

Structures are written as SMILES. Counter-ions that a name gives are not always drawn.

The test system of one assay is OTC. As to the kind of experiment: OTC expression modulated by compounds (OTC/Geo Mean of HKs, DMSO = 1). It counts as cell-based, human. The following applies: OTC expression; compound at 10 uM final concentration.
Regarding `C=CCNC1=C2C[C@@H](C)C[C@H](OC)[C@H](O)[C@@H](C)/C=C(\C)[C@H](OC(N)=O)[C@@H](OC)/C=C\C=C(/C)C(=O)NC(=CC1=O)C2=O` [17-AAG (Tanespimycin), Tanespimycin], the “Max Value (OTC/Geo Mean of HKs; DMSO = 1)” value is reported as 1.69. The same measure, in the same setting: the same measure for `N#CC(c1ccnc(OCc2ccc(CN3CCOCC3)cc2)n1)c1nc2ccccc2s1` (stereo not drawn) [AS602801 (Bentamapimod), Bentamapimod]: 2.75; for `Cc1cc(Nc2nc(N[C@@H](C)c3ncc(F)cn3)ncc2Cl)[nH]n1` [AZD1480]: 1.46.

`Cc1ccc(-n2nc(C(C)(C)C)cc2NC(=O)Nc2ccc(OCCN3CCOCC3)c3ccccc23)cc1` [BIRB 796, Doramapimod]: the “Max Value (OTC/Geo Mean of HKs; DMSO = 1)” value came out at 2.61. On the same count and under the same terms, the same measure for `O=C(NCCCNc1nc(Nc2cccc(NC(=O)N3CCCC3)c2)ncc1I)c1cccs1` [BX795]: 2.57. The same measure, in the same setting: the same measure for `CC1(C)CC[C@]2(C(=O)O)CC[C@]3(C)[C@H](C(=O)C=C4[C@@]5(C)C=C(C#N)C(=O)C(C)(C)[C@@H]5CC[C@]43C)[C@@H]2C1` [Bardoxolone]: 2.76; for `CCS(=O)(=O)N1CC(CC#N)(n2cc(-c3ncnc4[nH]ccc34)cn2)C1` [Baricitinib]: 1.66. Take `N#CC(C#N)=NNc1cccc(Cl)c1` [CCCP]: the “Max Value (OTC/Geo Mean of HKs; DMSO = 1)” value was 4.06.

`CC1(COc2ccc3c(c2)ncn3-c2ccc3cccc(N4CCC(N)CC4)c3n2)COC1` [Crenolanib]: the “Max Value (OTC/Geo Mean of HKs; DMSO = 1)” value was determined as 2.79. For `c1cc(-c2cnn3cc(-c4ccc(OCCN5CCCCC5)cc4)cnc23)ccn1` [Dorsomorphin], the “Max Value (OTC/Geo Mean of HKs; DMSO = 1)” value came to 4.78. As to `COc1cc2c(Oc3ccc(NC(=O)C4(C(=O)Nc5ccc(F)cc5)CC4)cc3F)ccnc2cc1OCCCN1CCOCC1` [Foretinib (GSK1363089), Foretinib], the “Max Value (OTC/Geo Mean of HKs; DMSO = 1)” value was found to be 4.09.

For `O=C(Nc1nc2cccc(-c3ccc(CN4CCS(=O)(=O)CC4)cc3)n2n1)C1CC1` [GLPG0634], the “Max Value (OTC/Geo Mean of HKs; DMSO = 1)” value is recorded as 1.54. Still for that read-out and setting: the same measure for `Cc1cc(Nc2cc(CN3CCOCC3)c3nc(C)c(Cc4ccc(Cl)cc4F)n3n2)n[nH]1` [LY2784544]: 2.78. On the same count and under the same terms, the same measure for `Cc1ccc(F)c(NC(=O)Nc2ccc(-c3cccc4[nH]nc(N)c34)cc2)c1` [Linifanib (ABT-869), Linifanib]: 2.87. Same read-out and setting: the same measure for `O=C(NCCCNc1nc(Nc2cccc(CN3CCOCC3)c2)ncc1C1CC1)C1CCC1` [MRT67307]: 1.68; for `N#CCNC(=O)c1ccc(-c2ccnc(Nc3ccc(N4CCOCC4)cc3)n2)cc1` [Momelotinib]: 3.52; for `CN(c1ncccc1CNc1nc(Nc2ccc3c(c2)CC(=O)N3)ncc1C(F)(F)F)S(C)(=O)=O` [PF-00562271]: 3.3.

Consider `CC1(C)CC(=O)c2c(C(F)(F)F)nn(-c3ccc(C(N)=O)c(N[C@H]4CC[C@H](OC(=O)CN)CC4)c3)c2C1` [PF-04929113 (SNX-5422)], for which the “Max Value (OTC/Geo Mean of HKs; DMSO = 1)” value stood at 1.73.

Take `CNC(=O)c1ccc(C)c(-n2c(C)cc(OCc3ccc(F)cc3F)c(Br)c2=O)c1` [PH-797804]: the “Max Value (OTC/Geo Mean of HKs; DMSO = 1)” value was 1.53. On the same count and under the same terms, the same measure for `Cn1c(=O)c(Oc2ccc(F)cc2F)cc2cnc(NC(CCO)CCO)nc21` [Pamapimod]: 1.73; for `Cc1ccc(Nc2nccc(N(C)c3ccc4c(C)n(C)nc4c3)n2)cc1S(N)(=O)=O` [Pazopanib]: 1.48.

Turning to `N[C@@]1(C(=O)O)CS(=O)(=O)[C@H]2[C@H](C(=O)O)[C@H]21` [Pomaglumetad], the “Max Value (OTC/Geo Mean of HKs; DMSO = 1)” value was 1.49.

In the case of `Cl.Cn1c(=O)c(Oc2ccc(F)cc2F)cc2cnc(NC3CCOCC3)nc21` [R1487 Hydrochloride], the “Max Value (OTC/Geo Mean of HKs; DMSO = 1)” value amounted to 1.64. Turning to `CNC(=O)c1cc(Oc2ccc(NC(=O)Nc3ccc(Cl)c(C(F)(F)F)c3)c(F)c2)ccn1` [Regorafenib], the “Max Value (OTC/Geo Mean of HKs; DMSO = 1)” value worked out at 1.54. Same read-out and setting: the same measure for `CC(C)[C@H](O)C(=O)N[C@@H](C)C(=O)N[C@@H]1C(=O)N(C)CCc2ccccc21` [Semagacestat]: 1.5; for `CCN(CC)CCNC(=O)c1c(C)[nH]c(/C=C2\C(=O)Nc3ccc(F)cc32)c1C` [Sunitinib]: 2.62.

Consider `CCS(=O)(=O)c1cccc(-c2cc(C(=O)NC3CCN(C)CC3)c(C)c3[nH]c4ncc(C)cc4c23)c1` [TAK-901], for which the “Max Value (OTC/Geo Mean of HKs; DMSO = 1)” value worked out at 2.9.

Turning to `COc1cc2nccc(Oc3ccc(NC(=O)Nc4cc(C)on4)c(Cl)c3)c2cc1OC` [Tivozanib], the “Max Value (OTC/Geo Mean of HKs; DMSO = 1)” value stood at 1.57. The same measure, in the same setting: the same measure for `C[C@@H]1CCN(C(=O)CC#N)C[C@@H]1N(C)c1ncnc2[nH]ccc12` [Tofacitinib citrate]: 1.6.

Regarding `CC(C)c1cc(CNc2nc(Nc3cc(C4CC4)[nH]n3)cc(N3CCN(C)CC3)n2)on1` [XL228], the “Max Value (OTC/Geo Mean of HKs; DMSO = 1)” value was 2.92.

Take `COCCn1c2c([n+](Cc3cnccn3)c1C)C(=O)c1ccccc1C2=O` [YM155 (Sepantronium Bromide), Sepantronium Bromide]: the “Max Value (OTC/Geo Mean of HKs; DMSO = 1)” value worked out at 3.16.

Still in this assay, the particulars now being: OTC expression; compound at 10 uM final concentration; listed as Regorafenib (BAY 73-4506).
For the compound `CNC(=O)c1cc(Oc2ccc(NC(=O)Nc3ccc(Cl)c(C(F)(F)F)c3)c(F)c2)ccn1` [Regorafenib], the “Max Value (OTC/Geo Mean of HKs; DMSO = 1)” value was 2.07.

Staying with this assay, now noted: OTC expression; compound tested at 1 uM.
As to `C=CCNc1c(O)cc2c(O)c1C[C@@H](C)C[C@H](OC)[C@H](O)[C@@H](C)/C=C(\C)[C@H](OC(N)=O)[C@@H](OC)/C=C\C=C(/C)C(=O)N2` [Retaspimycin Hydrochloride], the “Max Value (OTC/Geo Mean of HKs; DMSO = 1)” value was 1.48.

The subject of a further assay is multiple urea cycle-related genes. Description: RNA-seq, compounds that modulate multiple urea cycle-related genes. It counts as cell-based. The following applies: primary human hepatocytes.
On to `CC1(COc2ccc3c(c2)ncn3-c2ccc3cccc(N4CCC(N)CC4)c3n2)COC1` [Crenolanib], for which the “number of urea cycle genes whose expression was significantly up-regulated” value is “four”. Consider `CS[C@H]1SC[C@H]2C(=O)N(C)[C@@H](C(C)C)C(=O)OC[C@@H](NC(=O)c3cnc4ccccc4n3)C(=O)N[C@@H](C)C(=O)N(C)[C@@H]1C(=O)N(C)[C@@H](C(C)C)C(=O)OC[C@@H](NC(=O)c1cnc3ccccc3n1)C(=O)N[C@@H](C)C(=O)N2C` [Echinomycin], for which the “number of urea cycle genes whose expression was significantly up-regulated” value is “six”. Same read-out and setting: the same measure for `CCn1c(=O)c(-c2ccc(-c3cncs3)cc2Cl)cc2cnc(Nc3ccc(N4CCN(C)CC4)cc3)nc21` [FRAX597]: “five”. The same measure, in the same setting: the same measure for `N#CCNC(=O)c1ccc(-c2ccnc(Nc3ccc(N4CCOCC4)cc3)n2)cc1` [Momelotinib]: “three”; for `C1=C/COCc2cc(ccc2OCCN2CCCC2)Nc2nccc(n2)-c2cccc(c2)COC/1` [Pacritinib (SB1518), Pacritinib]: “five”; for `COc1cc(Nc2ncc(F)c(Nc3ccc4c(n3)N(COP(=O)(O)O)C(=O)C(C)(C)O4)n2)cc(OC)c1OC` [R788 (fostamatinib disodium hexahydrate), fostamatinib disodium hexahydrate]: “three”.

Still in this assay, the particulars now being: primary human hepatocytes, urea cycle-related genes significantly increased by the compound.
On to `CC1(COc2ccc3c(c2)ncn3-c2ccc3cccc(N4CCC(N)CC4)c3n2)COC1` [Crenolanib], for which the “Up-regulated Genes” value was “ASS1, ASL, OTC, ARG1”. As for `N#CCNC(=O)c1ccc(-c2ccnc(Nc3ccc(N4CCOCC4)cc3)n2)cc1` [Momelotinib], the “Up-regulated Genes” value is given as “CPS1, OTC, ARG1”. Still for that read-out and setting: the same measure for `C1=C/COCc2cc(ccc2OCCN2CCCC2)Nc2nccc(n2)-c2cccc(c2)COC/1` [Pacritinib (SB1518), Pacritinib]: “CPS1, ASS1, ASL, OTC, ARG1”; for `COc1cc(Nc2ncc(F)c(Nc3ccc4c(n3)N(COP(=O)(O)O)C(=O)C(C)(C)O4)n2)cc(OC)c1OC` [R788 (fostamatinib disodium hexahydrate), fostamatinib disodium hexahydrate]: “CPS1, ARG1, SLC25A15”.

The test system of a further assay is NAGS.
Assay: not given
The following applies: RNA-seq, primary human hepatocytes, compounds that significantly increase NAGS expression.
With `C=C1/C(=C\C=C2/CCC[C@]3(C)[C@@H]([C@H](C)CCCC(C)(C)O)CC[C@@H]23)C[C@@H](O)C[C@@H]1O` [Calcitriol], the “NAGS expression, Fold change (Log 2) vs untreated” value is given as 1.2 Log 2.

In the case of `O=C(N[C@H]1CN2CCC1CC2)c1cc2cccc(Cl)c2s1` [EVP-6124 (hydrochloride) (encenicline), encenicline], the “NAGS expression, Fold change (Log 2) vs untreated” value is on record as 0.75 Log 2.
